Assay results from patent EP4653435A1, “PRMT5-MTA INHIBITOR” (Suzhou Puhe Biopharma Co., Ltd., priority 2023, dated 2024).

Legend:
SDMA/HCT116-MTAPdel = assay: In-cell arginine symmetric dimethylation inhibition (In-cell western, ICW), MTAP-deficient cells; assay type: cell-based; settings: for IC50: Homo sapiens, HCT-116, HCT116 MTAP-deficient cells, 96 hours; for Selectivity wt/MTAPdel: ratio SDMA IC50 wt / MTAPdel
Method: (§1) 60 nL of different concentrations of compounds were added to each well using an Echo, and incubated at 37°C, 5% CO2 for 96 hours.
(§2) Next, 50 µL of 4% paraformaldehyde solution was added to each well and incubated at room temperature for 20 minutes to fix the cells. The solution in the wells was removed, and each well was rinsed four times with PBS solution containing 0.1% Tween 20 (PBST). To each well was then added 30 µL of ice-cold methanol. After standing at -20°C for 10 minutes, the methanol was removed and the wells washed four times with PBST. 30 µL of Odyssey blocking solution containing 0.5% Tween 20 was added to each well and shaken for 2 hours at room temperature. The blocking solution was removed and 30 µL of primary antibody (Symmetric Di-Methyl Arginine Motif [sdma-RG] MultiMab™ Rabbit mAb mix) diluted at 1:500 in Odyssey blocking solution containing 0.5% Tween 20 was added to each well. The plates were incubated overnight at 4°C, before removing the primary antibody and rinsing each well four times with PBST, 5 minutes per rinse. Secondary antibody (goat anti-rabbit IRDye 800CW, 1:800) and nuclear stain (DRAQ5, 1:10000) diluted in Odyssey blocking solution containing 0.5% Tween 20 were then added to each well before incubating at room temperature for 2 hours in the dark. The secondary antibody was removed, and the wells rinsed four times with PBST.
(§3) The sdme-RG and DRAQ5 signals were scanned at 800 nm and 700 nm respectively on a Li-Cor Odyssey instrument and the signal values recorded. The sdme-RG/DRAQ5 ratio was used to calculate the percentage inhibition of arginine symmetric dimethylation (SDMA), and the IC50 value calculated using GraphPad Prism software.

[1] = test system: NCI-H838 (MTAPdel) non-small cell lung adenocarcinoma tumor cells; assay: In vivo efficacy, NCI-H838 subcutaneous xenograft; parameters: species or system BALB/c nude mice; settings: BID, oral; for TGI: 23 consecutive days; for Tumor volume (mm^3)-D1: D1 (baseline at start of dosing)
Method: NCI-H838 (MTAPdel) non-small cell lung adenocarcinoma tumor cells were cultured and inoculated into 6-8 week old female BALB/c nude mice (weighing about 20 g), with all mice inoculated subcutaneously. The mice were cultured in an SPF-grade environment, and all mice had free access to commercially certified standard diets. Test compounds were orally administered daily once the average tumor volume of the mice grew to about 140 mm^3. The control group received blank solvent (saline containing 0.1% Tween 80 and 0.5% methyl cellulose), while the test group received a drug dose of 75 mg/kg or 100 mg/kg, twice a day. Tumor volume was measured in two dimensions with calipers three times a week, and the animals were weighed every day. […] Volume calculation formula: V=1/2a*b^2, where a denotes the long diameter of the tumor, and b the short diameter of the tumor.

HCT116-MTAPwt = assay: 2D antiproliferative assay (CTG cell viability), wild-type cells; assay type: cell-based; settings: Homo sapiens, HCT-116, 7-10 days
Method: (§4) HCT116 wild-type and MTAP-deficient cells were cultured in McCoy's 5A medium containing 10% FBS and 1% penicillin-streptomycin, and cultured in a 37°C, 5% CO2 constant temperature incubator. 40 µL of cell suspension was introduced into each well of a 384-well microplate. 40 nL of different concentrations of test compounds were added to each well using an Echo, before culturing in a 37°C, 5% CO2 constant temperature incubator for 7-10 days. 40 µL of CTG solution (Promega, Cat No. G7573) was added to each well and incubated in a 37°C, 5% CO2 constant temperature incubator for 30 minutes in the dark.

HCT116-MTAPdel = assay: 2D antiproliferative assay (CTG cell viability), MTAP-deficient cells; assay type: cell-based; settings: for IC50: Homo sapiens, HCT-116, HCT116 MTAP-deficient cells, 7-10 days, CTG, read-out: HCT116-MTAPdel/IC50/nM; for HCT116WT IMTAPdel selectivity: ratio IC50 wild type / MTAPdel, antiproliferation
Method: as §4

[2] = Liver microsomal stability assay, human; settings: liver microsomes
Method: (§7) The compounds to be tested were co-incubated with liver microsomes of different species with or without the addition of NADPH. The final concentration of the test compounds in the test system was 1 µM, the final concentration of NADPH was 1 mM, and the final concentration of liver microsomes was 0.5 mg/mL.

SDMA/HCT116-MTAPwt = assay: In-cell arginine symmetric dimethylation inhibition (In-cell western, ICW), wild-type cells; assay type: cell-based; settings: Homo sapiens, HCT-116, 96 hours
Method: as §1, §2, §3

[3] = Liver microsomal stability assay, mouse; assay type: in vitro ADME; settings: mouse liver microsomes 0.5 mg/mL, compound 1 µM, NADPH 1 mM, 60 minute
Method: as §7

MDR1 (P-gp) = assay: in vitro; settings: dog, MDCK-MDR1, pH 7.4
Method: (§5) The membrane permeability of the molecules of the present invention was evaluated to predict their permeability to the brain.
(§6) The specific procedure was: 1. MDCK-MDR1 cells were pre-cultured at a density of 1.56*10^6 cells/mL in a 96-well plate at 37°C for 7 days. 2. The MDCKII-MDR1 plate was taken out of the incubator, rinsed twice with pre-warmed HBSS (10 mM HEPES, pH 7.4), and then incubated at 37°C for 30 minutes. 3. The stock solution of the compound to be tested was diluted with DMSO to obtain a 0.2 mM solution, and then diluted with HBSS (10 mM HEPES, pH 7.4) to obtain a 1 µM working solution. A blank control group was also diluted with DMSO to obtain a 0.2 mM solution, and then diluted with HBSS (10 mM HEPES, pH 7.4) to obtain a 1 µM working solution. The final concentration of DMSO in the culture system was 0.5%. 4. The transport rate of the drug in the apical to basolateral direction was determined: 125 µL of the 1 µM test compound solution was added to a Transwell insert (top compartment), before immediately transferring a 50 µL sample (D0 sample) from the top comparment to a new 96-well plate. The receiving plate wells (basolateral compartment) were filled with 235 µL HBSS (10 mM HEPES, pH 7.4) and incubated at 37°C for 2 hours. 5. Upon completion of the incubation, 50 µL samples were transferred from the donor and acceptor sides to the wells of a new 96-well plate, before adding 4 volumes of cold acetonitrile containing an appropriate internal standard (IS). Prior to LC-MS/MS analysis, 100 µL of the supernatant was taken and mixed with an appropriate volume of ultrapure water. Papp = (VA×[drug]acceptor)/(Area×Time×[drug]initial,donor) [formula] where VA is the volume of the receptor pores (unit:mL), Area is the surface area of the membrane (0.143 cm^2 for a Transwell-96 well permeable support), and time is the total transport time in seconds. Efflux Ratio = Papp(B−A) /Papp(A−B) [formula]

in vitro = settings: dog, MDCK-MDR1, pH 7.4
Method: as §5, §6

[4] = Mouse pharmacokinetics testing; assay type: in vivo, CD1 female mice; settings: female, CD1, mouse, in vivo
Method: CD1 female mice were used as test animals and administered the compounds orally/intravenously (oral dosage was 10 mg/kg and intravenous dosage was 2 mg/kg). Test protocol: Each oral and intravenous group consisted of three mice. […] Plasma drug concentrations after oral and intravenous administration were determined by LC/MS/MS, and the collected data analyzed using AB Sciex QTRAP 6500 software.

hERG channels = hERG channels (Homo sapiens, UniProt Q12809); assay: cell-based
Method: The CHO hERG-Duo cell line stably expressing hERG channels was purchased from B'SYS GmbH and screened for monoclonal clones using the patch clamp system of Pharmaron Beijing Co., Ltd. The cells were cultured in a medium containing F12 (HAM) medium, 10% fetal bovine serum, 100 U/mL penicillin-streptomycin, 100 µg/mL hygromycin, and 100 µg/mL G418.
The membrane was depolarized to +30 mV for 4.8 seconds before returning the voltage to -50 mV for 5.2 seconds to remove inactivation and measure the deactivation tail current. The sampling interval was 15 seconds, and the peak tail current size was used to quantify the hERG current amplitude.
A blank vehicle was applied to the cells to establish a baseline. Test samples were introduced after stabilizing the hERG current for at least 5 minutes. In the presence of the test compound, the hERG current at different working concentrations was recorded for no less than 5 minutes until reaching a steady state, before capturing 5 sweeps. If a steady state was not reached within 10 minutes, the mean peak current of the last 5 sweeps was taken instead of the steady-state value. […] Peak current inhibition = (1−(Peak tail currentcompound −Peak tail currentpositive control)/(Peak tail currentBlank vehicle −Peak tail currentpositive control)) × 100 [formula]

[5] = test system: HUP-T4 (MTAPdel) human pancreatic cancer tumor cells; assay: In vivo efficacy, HUP-T4 subcutaneous xenograft; parameters: species or system BALB/c nude mice; settings: BID, oral; for TGI: 28 consecutive days; for Tumor volume (mm^3)-D1: D1 (baseline at start of dosing)
Method: HUP-T4 (MTAPdel) human pancreatic cancer tumor cells (MEM medium with 10% fetal bovine serum) were cultured and inoculated into 6-8 week old female BALB/c nude mice (weighing about 25 g), with all mice subcutaneously inoculated. The mice were cultured in an SPF-grade environment, and all mice had free access to commercially certified standard diets. Test compounds were orally administered daily once the average tumor volume of the mice grew to about 176 mm^3. The control group received blank solvent (0.1% TW80+0.5% methylcellulose+99.4% saline), while the test group received a drug dose of 75 mg/kg or 50 mg/kg, twice a day. Tumor volume was measured in two dimensions with calipers three times a week, and the animals were weighed every day. […] Voume calculation formula: V=1/2a*b^2, where a denotes the long diameter of the tumor, and b the short diameter of the tumor.

Sequence of hERG channels (Q12809 whole entry): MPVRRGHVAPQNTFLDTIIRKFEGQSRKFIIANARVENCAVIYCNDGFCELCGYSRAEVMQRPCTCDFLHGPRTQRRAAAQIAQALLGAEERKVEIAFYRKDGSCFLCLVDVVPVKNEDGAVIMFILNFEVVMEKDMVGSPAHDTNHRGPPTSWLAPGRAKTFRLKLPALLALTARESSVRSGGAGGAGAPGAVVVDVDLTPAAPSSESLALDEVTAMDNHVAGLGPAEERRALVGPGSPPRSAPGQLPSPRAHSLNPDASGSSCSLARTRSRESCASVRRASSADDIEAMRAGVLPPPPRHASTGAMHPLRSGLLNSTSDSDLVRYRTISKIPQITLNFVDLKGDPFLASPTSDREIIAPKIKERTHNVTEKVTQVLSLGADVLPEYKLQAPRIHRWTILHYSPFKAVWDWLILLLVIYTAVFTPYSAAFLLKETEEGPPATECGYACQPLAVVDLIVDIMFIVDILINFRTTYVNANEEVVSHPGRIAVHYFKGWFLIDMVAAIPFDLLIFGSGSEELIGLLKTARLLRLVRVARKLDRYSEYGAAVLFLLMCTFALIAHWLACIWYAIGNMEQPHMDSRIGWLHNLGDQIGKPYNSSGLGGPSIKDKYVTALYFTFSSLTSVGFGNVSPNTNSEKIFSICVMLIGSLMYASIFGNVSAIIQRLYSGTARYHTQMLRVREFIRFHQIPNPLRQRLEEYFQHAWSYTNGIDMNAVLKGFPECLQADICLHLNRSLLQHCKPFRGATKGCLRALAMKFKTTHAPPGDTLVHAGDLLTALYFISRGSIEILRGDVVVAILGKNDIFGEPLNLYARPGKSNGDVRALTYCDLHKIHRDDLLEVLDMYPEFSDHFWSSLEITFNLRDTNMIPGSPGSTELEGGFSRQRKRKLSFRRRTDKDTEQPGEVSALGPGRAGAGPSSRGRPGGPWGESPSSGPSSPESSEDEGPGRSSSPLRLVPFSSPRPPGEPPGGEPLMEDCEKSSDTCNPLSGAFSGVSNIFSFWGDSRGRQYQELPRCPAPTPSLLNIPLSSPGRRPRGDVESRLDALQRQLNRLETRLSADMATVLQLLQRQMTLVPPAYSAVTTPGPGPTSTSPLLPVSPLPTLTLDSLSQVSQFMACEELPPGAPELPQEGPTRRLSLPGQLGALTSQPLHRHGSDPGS

## CN(C(=O)C(=O)Nc1cnc(N)c2c1cnn2C)[C@@H]1COc2cc(C(F)(F)F)ccc21 [Compound P2a]
SDMA/HCT116-MTAPdel
  IC50: 0.5 nM
  Selectivity wt/MTAPdel: 3054
[1]; 75 mg/kg
  TGI: 92%
  Tumor volume (mm^3)-D1: 140 mm^3
  Tumor volume (mm^3)-D23: 350 mm^3
[1]; 100 mg/kg
  TGI: 97%
  Tumor volume (mm^3)-D1: 140 mm^3
  Tumor volume (mm^3)-D23: 180 mm^3
HCT116-MTAPwt
  IC50: 1080 nM
HCT116-MTAPdel
  IC50: 5 nM
  HCT116WT IMTAPdel selectivity: 216
[2]
  CLint scaled at 1 µM: 7.4 mL/min/kg
SDMA/HCT116-MTAPwt
  IC50: 1530 nM
[3]
  CLint scaled at 1 µM: 55 mL/min/kg
MDR1 (P-gp)
  efflux ratio: 1.5
In vitro
  Papp A→B: 14.8 ×10⁻⁶ cm/s
  Papp B→A: 22.1 ×10⁻⁶ cm/s
[4]
  F: 69%
[4]; iv, 2 mg/kg
  AUC(0-t): 402 ng·h/mL
  C0: 345 ng/mL
  clearance: 82.4 mL/min/kg
  half-life: 1.2 h
[4]; po, 10 mg/kg
  AUC(0-t): 1380 ng·h/mL
  Cmax: 707 ng/mL
  Tmax: 0.25 h
  half-life: 1.2 h

## CN(C(=O)C(=O)Nc1cnc(N)c2c1cnn2C)C1COc2cc(S(=O)(=O)C(F)(F)F)ccc21 (stereo not shown) [Compound P33]
HCT116-MTAPwt
  IC50: 1460 nM
HCT116-MTAPdel
  IC50: 9 nM
  HCT116WT IMTAPdel selectivity: 162
MDR1 (P-gp)
  efflux ratio: 4.2
In vitro
  Papp A→B: 6.86 ×10⁻⁶ cm/s
  Papp B→A: 28.8 ×10⁻⁶ cm/s

## CN(C(=O)C(=O)Nc1cnc(N)c2c1cnn2C)[C@@H]1COc2cc(SC(F)(F)F)ccc21 [Compound P29a]
SDMA/HCT116-MTAPdel
  IC50: 0.4 nM
  Selectivity wt/MTAPdel: 670
hERG channels
  IC50: 1500 nM
HCT116-MTAPwt
  IC50: 2350 nM
HCT116-MTAPdel
  IC50: 9 nM
  HCT116WT IMTAPdel selectivity: 261
[2]
  CLint scaled at 1 µM: 49.7 mL/min/kg
SDMA/HCT116-MTAPwt
  IC50: 268 nM
MDR1 (P-gp)
  efflux ratio: 1.75
In vitro
  Papp A→B: 7.6 ×10⁻⁶ cm/s
  Papp B→A: 13.3 ×10⁻⁶ cm/s

## [2H]C([2H])([2H])N(C(=O)C(=O)Nc1cnc(N)c2c1cnn2C)[C@@H]1COc2cc(C(F)(F)F)ccc21 [Compound P22]
[5]; 50 mg/kg
  TGI: 102%
  Tumor volume (mm^3)-D1: 176 mm^3
  Tumor volume (mm^3)-D28: 158 mm^3
[5]; 75 mg/kg
  TGI: 104%
  Tumor volume (mm^3)-D1: 176 mm^3
  Tumor volume (mm^3)-D28: 146 mm^3
SDMA/HCT116-MTAPdel
  IC50: 0.2 nM
  Selectivity wt/MTAPdel: 1490
HCT116-MTAPwt
  IC50: 961 nM
HCT116-MTAPdel
  IC50: 6 nM
  HCT116WT IMTAPdel selectivity: 160
[2]
  CLint scaled at 1 µM: 7.8 mL/min/kg
SDMA/HCT116-MTAPwt
  IC50: 298 nM
[3]
  CLint scaled at 1 µM: 46.2 mL/min/kg
MDR1 (P-gp)
  efflux ratio: 1.38
In vitro
  Papp A→B: 14.9 ×10⁻⁶ cm/s
  Papp B→A: 20.6 ×10⁻⁶ cm/s
[4]
  F: 62%
[4]; iv, 2 mg/kg
  AUC(0-t): 896 ng·h/mL
  C0: 1140 ng/mL
  clearance: 35.5 mL/min/kg
  half-life: 2.6 h
[4]; po, 10 mg/kg
  AUC(0-t): 2660 ng·h/mL
  Cmax: 1180 ng/mL
  Tmax: 0.25 h
  half-life: 2.2 h

## CCN(C(=O)C(=O)Nc1cnc(N)c2c1cnn2C)[C@@H]1COCc2nc(C(F)(F)F)ccc21 [Compound P28]
HCT116-MTAPwt
  IC50: 1190 nM
HCT116-MTAPdel
  IC50: 10 nM
  HCT116WT IMTAPdel selectivity: 119
[2]
  CLint scaled at 1 µM: 4.8 mL/min/kg
MDR1 (P-gp)
  efflux ratio: 3.2
In vitro
  Papp A→B: 10.7 ×10⁻⁶ cm/s
  Papp B→A: 34 ×10⁻⁶ cm/s
